Measurements from the supplement of paper PMC11997997.

Tests used:
[1] = system: Mycobacterium tuberculosis CDC1551 (intracellular, in murine BMDM); experiment: area under intracellular growth-inhibition dose-response curve (AUC (% inhibition x dose, relative)); higher = more potent; conditions: duration: 6 days; dose range: 0.13-80 uM, 8 points
Summary of the method: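 Primary murine bone marrow-derived macrophages in 384-well opaque plates were infected 24 h after seeding with luciferase-expressing M. tuberculosis CDC1551 at multiplicity of infection 1 for 1 h. They were then treated with an 8-dose, 2.5-fold series (final 80–0.13 μM) for 6 days. Growth was read by Bright-Glo luciferin assay and normalised to a reference drug control and the lowest-concentration wells. The value is the area under the growth-inhibition dose–response curve, calculated in GraphPad Prism.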

[2] = system: murine bone marrow-derived macrophages; experiment: area under cytotoxicity dose-response curve (AUC (% cytotoxicity x dose, relative)); higher = more cytotoxic; conditions: duration: 6 days; dose range: 0.13-80 uM, 8 points
Summary of the method: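 Using opaque 384-well plates, primary murine bone marrow-derived macrophages were treated for 6 days at 37 °C in 5% CO2 with an 8-point, 2.5-fold dilution series spanning final concentrations of 80–0.13 μM. After CellTiter-Glo (Promega) luminescence readout of viability, percent cytotoxicity was normalised to vehicle and positive control wells. The reported value is the area under the dose–response curve for cytotoxicity, derived in GraphPad Prism version 10.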

Compound | area under intracellular growth-inhibition dose-response curve [1] | area under cytotoxicity dose-response curve [2]
COc1cc(/C=N/NC(=O)c2ccncc2)ccc1OCC(=O)Nc1ccccc1 | 232 | < 0
CC1CCCN(c2ccc([N+](=O)[O-])s2)C1 (centres undefined) | 241 | < 0
CC1CCCN(C(=O)C2CCC(CNc3c(N4CCCCC4)c(=O)c3=O)CC2)C1 (centres undefined) | 91.7 | 8.75
Cc1cc(OCCCCn2ccnc2)cc(C)c1Cl.Cl | 174 | 24
O=C(/C=C/c1cccs1)N1CCCC1 | 168 | 3.62
CSc1nsc(SCC(=O)N2CCCCC2)n1 | 93.5 | 59
CCc1cccc2sc(N3CCN(C(=O)c4ccc([N+](=O)[O-])o4)CC3)nc12 | 71.9 | 85.8
COc1ccc2nc(C)cc(N/N=C/c3cccc(OC)c3O)c2c1 | 124 | 69
COc1ccc(NS(=O)(=O)c2cccc(N3CC(=O)C(c4ccccc4)=C3N)c2)cc1 | 43.8 | 45.7
CCN1/C(=C\c2ccc3ccccc3[n+]2CC)Sc2cc(C)ccc21.[I-] | 117 | 175
Cc1ccccc1CNC(=O)c1ccccc1 | 213 | 38.3
CCOc1ccc(-c2c(C)[n+](-c3ccc(OCC)cc3)c3n2CCCCC3)cc1.[O-][Cl+3]([O-])([O-])[O-] | 57.1 | 8.93
C[C@@H](CN1CCC[C@H]1CN1C(N)=NC[C@@H]1Cc1ccccc1)N1C[C@@H](Cc2ccccc2)N(CCCC2CCCC2)C1=N | 98 | 22.1
COc1ccc(NC(=O)C/C(C)=N/NC(=O)c2ccncc2)c([N+](=O)[O-])c1 | 169 | 129
COc1c(N2CCN(C(=S)NCc3ccccc3)C(C)C2)c(F)cc2c(=O)c(C(=O)O)cn(C3CC3)c12 (centres undefined) | 165 | < 0
Cc1cc(Cl)ccc1NC(=S)NCC(O)c1ccccc1 (centres undefined) | 126 | 76.6
C/C(Cn1nnc([N+](=O)[O-])n1)=N\NC(=O)c1ccncc1 | 271 | < 0
Cc1nn(Cc2ccccc2)c(Cl)c1C(=O)NCc1ccco1 | 104 | 16.8
CCOc1ccc(C(=O)NC(=S)Nc2ccc(N3CCC(C)CC3)cc2)cc1[N+](=O)[O-] | 254 | 81.7
Cc1ccc(C(=O)NC2CCCCCC2)o1 | 263 | < 0
COc1cc(/C=N/NC(=O)c2ccncc2)ccc1OCc1cnc(Cl)s1 | 219 | 3.56
CC1CCCCC1NC(=O)c1cc2ccccc2o1 (centres undefined) | 258 | 32.6
O=C(N/N=C/C=C/c1ccccc1[N+](=O)[O-])c1ccncc1 | 244 | 244
NS(=O)(=O)c1ccc(NC(=S)Nc2ccc(OCc3ccccc3)cc2)cc1 | 244 | < 0

Compound | area under intracellular growth-inhibition dose-response curve [1] | area under cytotoxicity dose-response curve [2]
CCCC(=O)NC(=S)Nc1ccc(N2CCN(C(=O)c3cccs3)CC2)cc1 | 274 | < 0
CN(C)[C@@H]1C(=O)C(C(N)=O)=C(O)[C@@]2(O)C(O)=C3C(=O)c4c(O)cccc4[C@@](C)(O)C3C[C@@H]12.Cl (some centres undefined) | 232 | 65.9
COc1ccc(OCc2n(CC(=O)OC3CC(C)CCC3C(C)C)c3ccccc3[n+]2C)cc1.[Cl-] (centres undefined) | 139 | 58.8
CC1CCc2nc3sc4c(c3c(N)c2C1)CCCC4 (centres undefined) | 174 | 58.3
Cc1cc(C(C)(C)C)cc(C)c1C[n+]1c2n(c3ccc(C(F)(F)F)cc31)CCCCC2.[Cl-] | 138 | 120
Cc1c(Cl)sn(-c2ccc(Cl)cc2)c1=O | 130 | 60.1
CC[C@@H](C)[C@@H]1CN([C@@H](C)CN2CCC[C@H]2CN2C(N)=NC[C@@H]2Cc2ccccc2)C(=N)N1CCc1ccc(Cl)c(Cl)c1 | 167 | < 0
CC1(C)CC(=O)C=C(Nc2ccc(C(=O)O)c(O)c2)C1 | 195 | < 0
Cc1ccc(-c2nnc(C)c(N3CCCC3)n2)cc1 | 101 | 92.9
Cc1cc2oc(=O)cc(-c3ccccc3)c2c(C)c1-c1ccc(CO)cc1 | 271 | < 0
O=C(/C=C/c1cccs1)NCc1ccccc1 | 217 | 10.6
CCCCC(=O)NCc1ccc(Cl)cc1 | 197 | 27.4
CC1CCC(C(C)C)C(OC(=O)C[n+]2cc(-c3ccc(Cl)cc3)n3c2CCCCC3)C1.[Cl-] (centres undefined) | 94.6 | 107
COc1ccc(C(=O)Oc2cccc(/C=N/NC(N)=S)c2)cc1 | 145 | 65
Cc1ccc(C(=O)N2CCC(C)CC2)cc1C | 113 | 24.4
CCn1c(C)cs/c1=N/C(=O)c1ccccc1 | 197 | 25.7
NC(=O)C[C@H](NC(=O)c1ccc(Cl)cc1)C(=O)OCc1ccccc1 | 16.5 | < 0
CCOC(=O)c1ccc(NC(=O)c2cc3c(s2)CCC3)cc1 | 234 | 11.2
CC(C)CCNC(=O)c1csc2c1CCCCC2 | 250 | 42.8
CC(C)CC(=O)NC(=S)Nc1ccc(NC(=O)c2cccs2)cc1 | 271 | 33.2
CN1CCN(c2c(F)cc3c(=O)c(C(=O)[O-])cn4c3c2OCN4C)CC1 | 187 | 18.2
Cc1cc(OCCCC(=O)NNC(=O)c2ccncc2)ccc1Cl | 245 | 25.3
COc1ccc(NC(=O)CON=CC(=O)Nc2ccc(C)cc2)c(OC)c1 | 38.9 | 7
